Test results published in patent US10759796B2, “CXCR4 inhibitors and uses thereof” (X4 Pharmaceuticals, Inc., priority 2016, dated 2020).

Key:
[1] = molecular target: CXCR-4 transfected U87 cell line (U87.CXCR4) (Homo sapiens (Human), UniProt P61073); assay: Intracellular CXCL-12-induced calcium mobilization assay (FLIPR); assay type: cell-based; conditions: U87.CXCR4 cells, CXCL-12 25-50 ng/mL; read-out: IC50 CXCL-12 Ca2+ flux U87.CXCR4+
Procedure: Example 28: REGA Screening Assay
Intracellular CXCL-12-Induced Calcium Mobilization Assay
Intracellular calcium mobilization induced by chemokines or chemokine-derived peptides were evaluated using a calcium responsive fluorescent probe and a FLIPR system. The CXCR-4 transfected U87 cell line (U87.CXCR4) cells were seeded in gelatine-coated black-wall 96-well plates at 20,000 cells per well and incubated for 12 hours. Cells were then loaded with the fluorescent calcium probe Fluo-2 acetoxymethyl at 4 μM final concentration in assay buffer (Hanks' balanced salt solution with 20 mM HEPES buffer and 0.2% bovine serum albumin, pH 7.4) for 45 min at 37° C. The intracellular calcium mobilization induced by the CXCL-12 (25-50 ng/mL) was then measured at 37° C. by monitoring the fluorescence as a function of time in all the wells simultaneously using a fluorometric imaging plate reader (FLIPR Tetra, Molecular Devices).

[2] = molecular target: Jurkat cells expressing CXCR4 (Homo sapiens (Human), UniProt P61073); assay: Chemokine (CXCL12-AF647) binding inhibition assay; conditions: CXCL12-AF647 25 ng/mL, read-out: IC50 CXCL-12 binding Jurkat
Procedure: Chemokine (CXCL12-AF647) Binding Inhibition Assay
Jurkat cells expressing CXCR4 were washed once with assay buffer (Hanks' balanced salt solution with 20 mM HEPES buffer and 0.2% bovine serum albumin, pH 7.4) and then incubated for 15 min at room temperature with the test compounds diluted in assay buffer at dose-dependent concentrations. Subsequently, CXCL12-AF647 (25 ng/mL) was added to the compound-incubated cells. The cells were incubated for 30 min at room temperature. Thereafter, the cells were washed twice in assay buffer, fixed in 1% paraformaldehyde in PBS, and analyzed on the FL4 channel of a FACSCalibur flow cytometer equipped with a 635-nm red diode laser (Becton Dickinson, San Jose, Calif., USA).
The percentages of inhibition of CXCL12-AF647 binding were calculated according to the formula: [1−((MFI−MFINC)/(MFIPC−MFINC))]×100 where MFI is the mean fluorescence intensity of the cells incubated with CXCL12-AF647 in the presence of the inhibitor, MFINC is the mean fluorescence intensity measured in the negative control (i.e., autofluorescence of unlabeled cells), and MFIPC is the mean fluorescence intensity of the positive control (i.e., cells exposed to CXCL12-AF647 alone).

[3] = in vitro; conditions: human, Caco-2, pH 7.4
Procedure: Example 28: Caco-2 Permeability Assay
The goal of this assay was to evaluate the intestinal absorption potential of drug candidates using Caco-2 cell lines.
1. Prewarm Prewarm HBSS Buffer in 37° C. water bath
2. Sonicate Take compounds from −20° C., sonicate for a few minutes (no less than 1 minute)
HBSS buffer with 0.3% DMSO and 5 μM LY: add 150 μL DMSO and 50 μL LY (5 mM) into 50 ml HBSS buffer (pH 7.4).
HBSS buffer with 0.1% DMSO and 5 μM LY: add 50 μL DMSO and 50 μL LY (5 mM) into 50 mL HBSS buffer (pH 7.4).
HBSS buffer with 0.3% DMSO: add 150 μL DMSO into 50 ml HBSS buffer (pH 7.4).
HBSS buffer with 0.1% DMSO: add 50 μL DMSO into 50 ml HBSS buffer (pH 7.4).
Receiver Solution Buffer:
Prepare HBSS buffer with 0.4% DMSO: add 200 μL DMSO into 50 ml HBSS buffer (pH 7.4).
Prepare HBSS buffer with 0.4% DMSO and 5 μM LY: add 200 μL DMSO and 50 μL LY (5 mM) into 50 ml HBSS buffer (pH 7.4).
4. Measure TEER Take cell culture plate out of incubator, wash the cell monolayers with HBSS buffer, and then measure TEER values at Rm temperature. 5. Centrifuge Centrifuge the compound solution (from step 3) at 4000 rpm for 5 min before loading to donor chambers. 6. Dosing Add solution based on the volumes listed in the following table (make sure to take extra 100 μL of donor sample for TO as Backup).
7. Apical LYT0 Samples To determine LY concentration in the apical chember, take 100 μL sample from apical chambers into an opaque plate for LYT0. 8. Prewarm Prewarm apical and basolateral plates at 37° C. for about 5 min, then begin transport by placing the apical plate onto basolateral plate. 9. Incubation Keep the plates in incubator at 37° C. for 90 min. 10. Standard Curve Preparation
For 300 μM compound solution, add 6 μL of compound stock solution into 192 μL of MeOH/H2O (1:1).
Prepare Working Solution in MeOH/H2O (1:1)
3 μL (20×)+57 μL of 0.4% DMSO HBSS+60 μL ACN with IS (Osalmid or Imipramine) - - - 120 μL (1×)
11. Transport Termination Separate the apical plate from the basolateral plate after 90-min incubation.
12. Measure LY Take 100 μL samples from basolateral plate to an opaque plate as LYT90.
13. Measure LY concentrations for LYT0 and LYT90 by Fluorometer (at excitation of 485 nm/emission of 535 nm).
Study details: Test concentration 10 μM
Test systems: Caco-2/HBSS solution
Incubation conditions: 0, 90 min at 37° C.
Sample size: Duplicates (n=2)
Bioanalytical method: LC-MS/MS
For Millicell-24 Cell Culture Plates: surface area of the membrane=0.7 cm^2, VA=0.8 mL (A-to-B) or 0.4 mL (B-to-A)
1. Papp values were calculated based on calculated concentrations.
The compound numbers correspond to the compound numbers in Table 1.

Sequence of Jurkat cells expressing CXCR4 (P61073 whole entry): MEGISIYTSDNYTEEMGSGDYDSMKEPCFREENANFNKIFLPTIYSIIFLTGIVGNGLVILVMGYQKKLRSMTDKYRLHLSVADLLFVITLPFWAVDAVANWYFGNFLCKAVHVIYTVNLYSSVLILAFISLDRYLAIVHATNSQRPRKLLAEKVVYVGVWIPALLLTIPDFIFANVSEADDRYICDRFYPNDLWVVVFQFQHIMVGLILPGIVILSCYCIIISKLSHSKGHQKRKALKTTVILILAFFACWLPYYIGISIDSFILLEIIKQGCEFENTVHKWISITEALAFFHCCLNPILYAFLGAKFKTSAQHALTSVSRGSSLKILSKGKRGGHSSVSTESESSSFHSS
Sequence of CXCR-4 transfected U87 cell line (U87.CXCR4) (P61073 whole entry): as above

Cc1cccnc1[C@H]1CCC[C@@H](c2nc3ccccn3c2CCCN2CCN(C)CC2)N1C (stereo in doubt) [Compound I-25]
IC50 [1]: 0.01 to 100 nM
IC50 [2]: 0.01 to 100 nM
Papp A→B at 90 min, 10 μM [3]: 0.1 to 10 ×10⁻⁶ cm/s
Papp B→A at 90 min, 10 μM [3]: 10 to 30 ×10⁻⁶ cm/s
efflux ratio at 90 min, 10 μM [3]: > 30

Cc1cccnc1[C@H]1CCC[C@@H](c2nc3ccccn3c2CCCN)N1C (stereo in doubt) [Compound I-26]
IC50 [1]: 100 to 1000 nM
IC50 [2]: 0.01 to 100 nM

CNCCCc1c([C@@H]2CCC[C@H](c3ncccc3C)N2C)nc2ccccn12 (stereo in doubt) [Compound I-27]
IC50 [1]: 0.01 to 100 nM
IC50 [2]: 0.01 to 100 nM
Papp A→B at 90 min, 10 μM [3]: 0.1 to 10 ×10⁻⁶ cm/s
Papp B→A at 90 min, 10 μM [3]: 0.1 to 10 ×10⁻⁶ cm/s
efflux ratio at 90 min, 10 μM [3]: 10 to 30

Cc1cccnc1[C@H]1CCC[C@@H](c2nc3ccccn3c2CCCN(C)C)N1C (stereo in doubt) [Compound I-28]
IC50 [1]: 100 to 1000 nM
IC50 [2]: 0.01 to 100 nM
Papp A→B at 90 min, 10 μM [3]: 0.1 to 10 ×10⁻⁶ cm/s
Papp B→A at 90 min, 10 μM [3]: 10 to 30 ×10⁻⁶ cm/s
efflux ratio at 90 min, 10 μM [3]: > 30

Cc1cccnc1[C@H]1CCC[C@@H](c2nc3cccc(N4CCN(C)CC4)n3c2F)N1C (stereo in doubt) [Compound I-34]
IC50 [1]: 0.01 to 100 nM
IC50 [2]: 0.01 to 100 nM
Papp A→B at 90 min, 10 μM [3]: 10 to 30 ×10⁻⁶ cm/s
Papp B→A at 90 min, 10 μM [3]: 0.1 to 10 ×10⁻⁶ cm/s
efflux ratio at 90 min, 10 μM [3]: 0.1 to 10

Cc1cccnc1[C@H]1CCC[C@@H](c2nc3cccc(N4CCN(C)CC4)n3c2C)N1 (stereo in doubt) [Compound I-192]
IC50 [1]: 0.01 to 100 nM
IC50 [2]: 0.01 to 100 nM
Papp A→B at 90 min, 10 μM [3]: 0.1 to 10 ×10⁻⁶ cm/s
Papp B→A at 90 min, 10 μM [3]: 10 to 30 ×10⁻⁶ cm/s
efflux ratio at 90 min, 10 μM [3]: 0.1 to 10

Cc1cccnc1[C@@H]1CCC[C@H](c2cn3c(N4CCN(C)CC4)cccc3n2)N1C [Compound I-1]
IC50 [1]: 0.01 to 100 nM
IC50 [2]: 0.01 to 100 nM
Papp A→B at 90 min, 10 μM [3]: 0.1 to 10 ×10⁻⁶ cm/s
Papp B→A at 90 min, 10 μM [3]: 10 to 30 ×10⁻⁶ cm/s
efflux ratio at 90 min, 10 μM [3]: 0.1 to 10

Cc1cccnc1[C@@H]1CCC[C@H](c2cn3ccccc3n2)N1CCCCN [Compound I-2]
IC50 [1]: 100 to 1000 nM
IC50 [2]: 100 to 1000 nM

Cc1cccnc1[C@@H]1CC(=O)C[C@H](c2cn3c(N4CCN(C)CC4)cccc3n2)N1C [Compound I-3]
IC50 [1]: 0.01 to 100 nM
IC50 [2]: 0.01 to 100 nM
Papp A→B at 90 min, 10 μM [3]: 0.1 to 10 ×10⁻⁶ cm/s
Papp B→A at 90 min, 10 μM [3]: 0.1 to 10 ×10⁻⁶ cm/s
efflux ratio at 90 min, 10 μM [3]: 0.1 to 10

Cc1cccnc1[C@@H]1CCC[C@H](c2cn3c(N4CCNCC4)cccc3n2)N1C [Compound I-4]
IC50 [1]: 0.01 to 100 nM
IC50 [2]: 0.01 to 100 nM
Papp A→B at 90 min, 10 μM [3]: 0.1 to 10 ×10⁻⁶ cm/s
Papp B→A at 90 min, 10 μM [3]: 10 to 30 ×10⁻⁶ cm/s
efflux ratio at 90 min, 10 μM [3]: > 30

Cc1cccnc1[C@@H]1CCC[C@H](c2cn3c(-c4ccncc4)cccc3n2)N1C [Compound I-5]
IC50 [1]: 100 to 1000 nM
IC50 [2]: 0.01 to 100 nM

Cc1cccnc1[C@@H]1CCC[C@H](c2cn3c(CCc4ccccn4)cccc3n2)N1C [Compound I-7]
IC50 [1]: ≥ 1000 nM
IC50 [2]: 100 to 1000 nM

Cc1cccnc1[C@@H]1CCC[C@H](c2cn3ccccc3n2)N1CCc1ccccn1 [Compound I-8]
IC50 [1]: 0.01 to 100 nM
IC50 [2]: 0.01 to 100 nM

Cc1cccnc1[C@@H]1CCC[C@H](c2cn3ccccc3n2)N1CCn1cccn1 [Compound I-10]
IC50 [1]: 0.01 to 100 nM
IC50 [2]: 0.01 to 100 nM

CCOCc1c([C@H]2CCC[C@@H](c3ncccc3C(C)C)N2C)nc2cccc(N3CCN(CC)CC3)n12 [Compound I-59]
IC50 [1]: ≥ 1000 nM
IC50 [2]: 100 to 1000 nM

CC(C)c1cccnc1[C@@H]1CCC[C@H](c2nc3cccc(N4CCN(C)CC4)n3c2CO)N1C [Compound I-74]
IC50 [1]: ≥ 1000 nM
IC50 [2]: 100 to 1000 nM

CN1CCN(c2cccc3nc([C@H]4CCC[C@@H](c5ncccc5C(F)(F)F)N4C)c(Cl)n23)CC1 [Compound I-119]
IC50 [1]: ≥ 1000 nM
IC50 [2]: 0.01 to 100 nM

Cc1cccnc1[C@@H]1CCC[C@H](c2nc3ccccn3c2-c2ccccn2)N1 [Compound I-209]
IC50 [2]: ≥ 1000 nM

Cc1cccnc1[C@@H]1CCC[C@H](c2cn3c(N4CCN(C)CC4=O)cccc3n2)N1 [Compound I-211]
IC50 [1]: ≥ 1000 nM
IC50 [2]: 100 to 1000 nM

Cc1cccnc1[C@@H]1CCC[C@H](c2cn3c(-c4ccnn4C)cccc3n2)N1 [Compound I-212]
IC50 [1]: ≥ 1000 nM
IC50 [2]: ≥ 1000 nM

Cc1cccnc1[C@@H]1CCC[C@H](c2cn3c(-c4cncn4C)cccc3n2)N1 [Compound I-213]
IC50 [1]: ≥ 1000 nM
IC50 [2]: ≥ 1000 nM

Cc1cccnc1[C@@H]1CCC[C@H](c2cn3c(-c4ccncc4)cccc3n2)N1 [Compound I-214]
IC50 [1]: ≥ 1000 nM
IC50 [2]: ≥ 1000 nM

Cc1cccnc1[C@@H]1CCC[C@H](c2cn3c(-c4cccnc4)cccc3n2)N1 [Compound I-215]
IC50 [1]: ≥ 1000 nM
IC50 [2]: ≥ 1000 nM

Cc1cccnc1[C@@H]1CCC[C@H](c2cn3c(-c4ccccn4)cccc3n2)N1 [Compound I-216]
IC50 [1]: ≥ 1000 nM
IC50 [2]: ≥ 1000 nM

Cc1cccnc1[C@@H]1CCC[C@H](c2nc3ccccn3c2CCC#N)N1 [Compound I-219]
IC50 [1]: ≥ 1000 nM
IC50 [2]: ≥ 1000 nM

CC[C@H]1OC(=O)[C@H](C)[C@@H](O[C@H]2C[C@@](C)(OC)[C@@H](O)[C@H](C)O2)[C@H](C)[C@@H](O[C@@H]2O[C@H](C)C[C@H](N(C)C)[C@H]2O)[C@](C)(O)C[C@@H](C)C(=O)[C@H](C)[C@@H](O)[C@]1(C)O [Erythromycin, reference compound]
efflux ratio at 90 min, 10 μM [3]: > 116

COCCc1ccc(OCC(O)CNC(C)C)cc1 (stereo not drawn) [Metoprolol, reference compound]
Papp at 90 min, 10 μM [3]: > 10 ×10⁻⁶ cm/s
